The text below walks through data of publication PMC7104226, “Antiepileptic Drug Carbamazepine Binds to a Novel Pocket on the Wnt Receptor Frizzled-8” (Journal of Medicinal Chemistry, 2020).

This test concerns the target T1, FZD8 (frizzled-8) cysteine-rich domain, FZD8CRD (Mus musculus, UniProt Q61091).
T1 construct: Extracellular CRD A28-R153, pHL-Avi3, BirA-biotinylated, secreted from HEK293T, immobilized on streptavidin SPR chip
T1 sequence (Q61091 28-153): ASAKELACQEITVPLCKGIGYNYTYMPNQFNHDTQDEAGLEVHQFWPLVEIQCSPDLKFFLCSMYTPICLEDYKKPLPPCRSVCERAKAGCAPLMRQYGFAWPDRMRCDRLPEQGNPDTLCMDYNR
The test is described as follows: crystal structure at […] Å (N49E/N152E construct); SPR Kd on biotinylated FZD8CRD (A28-R153). The test is classed as binding.

Each structure is given as a SMILES string.

As to `NC(=O)N1c2ccccc2C=Cc2ccccc21` [compound 79, 5H-dibenzo[b,f]azepine-5-carboxamide], the Kd (commonly the equilibrium constant for the complex coming apart) was found to be 17 µM. That is a double-digit micromolar value.
